Laboratory results from patent US10399940B2, “Substituted pyrrolidines and methods of use” (AbbVie S.à.r.l., priority 2016, dated 2019).
Where two headings read alike, the source gives them in different places.

Target: T1, F508delCFTR (Homo sapiens, UniProt P13569, DEL508-508)
T1 construct: expressed in transfected cells; host or cells: CFBE41o- (human lung derived epithelial cell line), doxycycline-inducible expression
Experiment: Cell Surface Expression-Horse Radish Peroxidase (CSE-HRP) assay
Assay type: cell-based
Conditions: CFBE41o-F508delCFTR-HRP cells; for Maximum % activity (with co-corrector): with co-corrector (2 μM); for Maximum % activity (with co-corrector) / Maximum % activity (without co-corrector): normalized to on-plate positive control, highest concentration 20 μM
Summary of the method: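 CFBE41o- cells expressed F508delCFTR with HRP in the fourth exofacial loop, induced by 0.5 μg/mL doxycycline for 72 h at 37 °C. Compounds alone or with 2 μM co-corrector ran 18–24 h at 33 °C, 8-point 3-fold from 20 μM. Washed-cell luminol luminescence was normalized to DMSO and positive control, fitted sigmoidally for EC50 (three plates).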

[1] = test compound without co-corrector, 18-24 hours at 33° C., read-out: EC50 (without co-corrector)
[2] = with co-corrector (2 μM of 3-[(2R,4R)-4-({[1-(2,2-difluoro-1,3-benzodioxol-5-yl)cyclopropyl]carbonyl}amino)-7-methoxy-3,4-dihydro-2H-chromen-2-yl]benzoic acid), read-out: EC50 (with co-corrector)

T1 sequence (P13569 with tags, fused parts or gaps DEL508-508): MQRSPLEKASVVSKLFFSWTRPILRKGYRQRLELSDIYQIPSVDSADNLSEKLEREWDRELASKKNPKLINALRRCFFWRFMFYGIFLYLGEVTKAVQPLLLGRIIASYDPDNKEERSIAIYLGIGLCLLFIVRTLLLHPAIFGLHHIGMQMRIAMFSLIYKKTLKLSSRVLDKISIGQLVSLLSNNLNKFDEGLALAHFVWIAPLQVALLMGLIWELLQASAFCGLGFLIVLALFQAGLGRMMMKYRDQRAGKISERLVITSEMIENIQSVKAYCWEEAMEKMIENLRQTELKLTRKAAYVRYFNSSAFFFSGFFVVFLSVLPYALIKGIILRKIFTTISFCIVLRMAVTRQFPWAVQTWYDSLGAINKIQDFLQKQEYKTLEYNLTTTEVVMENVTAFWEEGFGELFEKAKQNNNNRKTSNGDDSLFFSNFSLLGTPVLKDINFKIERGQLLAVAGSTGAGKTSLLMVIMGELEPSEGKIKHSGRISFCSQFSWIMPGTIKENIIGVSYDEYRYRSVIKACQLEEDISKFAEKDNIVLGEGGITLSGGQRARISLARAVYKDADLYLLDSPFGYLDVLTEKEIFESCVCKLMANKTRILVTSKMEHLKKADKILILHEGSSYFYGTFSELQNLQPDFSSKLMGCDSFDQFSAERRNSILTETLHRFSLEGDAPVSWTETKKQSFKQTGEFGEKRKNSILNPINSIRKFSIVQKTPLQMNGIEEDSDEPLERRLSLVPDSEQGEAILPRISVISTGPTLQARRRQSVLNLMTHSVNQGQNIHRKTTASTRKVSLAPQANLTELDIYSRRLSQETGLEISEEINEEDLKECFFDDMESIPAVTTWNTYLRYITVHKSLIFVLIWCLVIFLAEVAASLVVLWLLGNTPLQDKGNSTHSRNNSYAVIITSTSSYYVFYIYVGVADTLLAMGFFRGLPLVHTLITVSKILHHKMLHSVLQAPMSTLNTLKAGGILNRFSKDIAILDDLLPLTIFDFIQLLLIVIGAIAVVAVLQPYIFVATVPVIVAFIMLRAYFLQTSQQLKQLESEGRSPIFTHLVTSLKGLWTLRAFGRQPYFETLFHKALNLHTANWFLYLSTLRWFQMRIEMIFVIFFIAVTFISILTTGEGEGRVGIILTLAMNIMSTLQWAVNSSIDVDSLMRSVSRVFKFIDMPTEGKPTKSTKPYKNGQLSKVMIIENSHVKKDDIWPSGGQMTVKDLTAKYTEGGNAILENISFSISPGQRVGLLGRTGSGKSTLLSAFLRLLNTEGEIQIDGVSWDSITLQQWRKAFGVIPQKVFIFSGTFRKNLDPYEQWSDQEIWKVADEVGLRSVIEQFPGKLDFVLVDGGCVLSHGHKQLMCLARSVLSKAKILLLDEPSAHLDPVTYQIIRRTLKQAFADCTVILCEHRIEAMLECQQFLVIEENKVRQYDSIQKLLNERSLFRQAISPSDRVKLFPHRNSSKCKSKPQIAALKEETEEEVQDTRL

EC50 [1] | EC50 [2] | Maximum % activity (with co-corrector) | Maximum % activity (without co-corrector) | Compound
1 to 10 µM | < 1 µM | +++ (≥350) | +++ (≥200) | COc1ccc(C(C)(C)C)cc1CO[C@H]1[C@H](C(C)(C)C)[C@@H](C(=O)O)N(C(=O)[C@@H]2CCCO2)[C@H]1c1ccccc1Br [Example 162, (2S,3R,4S,5S)-5-(2-bromophenyl)-3-tert-butyl-4-[(5-tert-butyl-2-methoxyphenyl)methoxy]-1-[(2S)-oxolane-2-carbonyl]pyrrolidine-2-carboxylic acid]
> 10 µM | > 10 µM | + (<150) | + (<100) | COc1ncc(C(F)(F)F)cc1CO[C@@H]1[C@H](C(C)(C)C)[C@@H](C(=O)O)N(C(=O)C2CCCC2)[C@H]1c1cccnc1OC(C)C [Example 163, (2S,3R,4R,5S)-3-tert-butyl-1-(cyclopentanecarbonyl)-4-{[2-methoxy-5-(trifluoromethyl)pyridin-3-yl]methoxy}-5-{2-[(propan-2-yl)oxy]pyridin-3-yl}pyrrolidine-2-carboxylic acid]
> 10 µM | > 10 µM | + (<150) | + (<100) | COc1ncc(C(F)(F)F)cc1CO[C@@H]1[C@H](C(C)(C)C)[C@@H](C(=O)O)N(C(=O)C2CCCCC2)[C@H]1c1cccnc1OC(C)C [Example 164, (2S,3R,4R,5S)-3-tert-butyl-1-(cyclohexanecarbonyl)-4-{[2-methoxy-5-(trifluoromethyl)pyridin-3-yl]methoxy}-5-{2-[(propan-2-yl)oxy]pyridin-3-yl}pyrrolidine-2-carboxylic acid]
1 to 10 µM | 1 to 10 µM | +++ (≥350) | ++ (≥100 and <200) | COc1ncc(C2CCC2)cc1CO[C@H]1[C@H](C(C)(C)C)[C@@H](C(=O)O)N(C(=O)[C@@H]2CCCO2)[C@H]1c1ccccc1C(F)F [Example 165, (2S,3R,4S,5S)-3-tert-butyl-4-[(5-cyclobutyl-2-methoxypyridin-3-yl)methoxy]-5-[2-(difluoromethyl)phenyl]-1-[(2S)-oxolane-2-carbonyl]pyrrolidine-2-carboxylic acid]
1 to 10 µM | 1 to 10 µM | +++ (≥350) | + (<100) | COc1ncc(C2CCC2)cc1CO[C@@H]1[C@H](C(C)(C)C)[C@@H](C(=O)O)N(C(=O)OC(C)C)[C@H]1c1ccccc1Br [Example 166, (2S,3R,4R,5S)-5-(2-bromophenyl)-3-tert-butyl-4-[(5-cyclobutyl-2-methoxypyridin-3-yl)methoxy]-1-{[(propan-2-yl)oxy]carbonyl}pyrrolidine-2-carboxylic acid]
1 to 10 µM | 1 to 10 µM | ++ (≥150 and <350) | + (<100) | COc1ncc(C(F)(F)F)cc1CO[C@H]1[C@H](C(C)(C)C)[C@@H](C(=O)O)N(C(=O)OC(C)C)[C@H]1c1c(F)cccc1F [Example 167, (2S,3R,4S,5S)-3-tert-butyl-5-(2,6-difluorophenyl)-4-{[2-methoxy-5-(trifluoromethyl)pyridin-3-yl]methoxy}-1-{[(propan-2-yl)oxy]carbonyl}pyrrolidine-2-carboxylic acid]
1 to 10 µM | 1 to 10 µM | +++ (≥350) | ++ (≥100 and <200) | COc1ncc(C2CCC2)cc1CO[C@H]1[C@H](C(C)(C)C)[C@@H](C(=O)O)N(C(=O)OC(C)C)[C@H]1c1ccccc1C1CC1 [Example 168, (2S,3R,4S,5S)-3-tert-butyl-4-[(5-cyclobutyl-2-methoxypyridin-3-yl)methoxy]-5-(2-cyclopropylphenyl)-1-{[(propan-2-yl)oxy]carbonyl}pyrrolidine-2-carboxylic acid]
1 to 10 µM | 1 to 10 µM | +++ (≥350) | +++ (≥200) | COc1ncc(C2CCC2)cc1CO[C@H]1[C@H](C(C)(C)C)[C@@H](C(=O)O)N(C(=O)C2CCCCC2)[C@H]1c1cccnc1OC(C)C [Example 169, (2S,3R,4S,5S)-3-tert-butyl-4-[(5-cyclobutyl-2-methoxypyridin-3-yl)methoxy]-1-(cyclohexanecarbonyl)-5-{2-[(propan-2-yl)oxy]pyridin-3-yl}pyrrolidine-2-carboxylic acid]
1 to 10 µM | < 1 µM | +++ (≥350) | +++ (≥200) | COc1ncc(C2CCC2)cc1CO[C@H]1[C@H](C(C)(C)C)[C@@H](C(=O)O)N(C(=O)[C@@H]2CCCCO2)[C@H]1c1ccccc1C [Example 170, (2S,3R,4S,5S)-3-tert-butyl-4-[(5-cyclobutyl-2-methoxypyridin-3-yl)methoxy]-5-(2-methylphenyl)-1-[(2S)-oxane-2-carbonyl]pyrrolidine-2-carboxylic acid]
1 to 10 µM | 1 to 10 µM | +++ (≥350) | +++ (≥200) | COc1ncc(C2CCC2)cc1CO[C@H]1[C@H](C(C)(C)C)[C@@H](C(=O)O)N(C(=O)[C@@H]2CCCCO2)[C@H]1c1ccccc1C1CC1 [Example 171, (2S,3R,4S,5S)-3-tert-butyl-4-[(5-cyclobutyl-2-methoxypyridin-3-yl)methoxy]-5-(2-cyclopropylphenyl)-1-[(2S)-oxane-2-carbonyl]pyrrolidine-2-carboxylic acid]
1 to 10 µM | 1 to 10 µM | +++ (≥350) | +++ (≥200) | COc1ccc(C(C)(C)C)cc1CO[C@H]1[C@H](C(C)(C)C)[C@@H](C(=O)O)N(C(=O)[C@@H]2CCCO2)[C@H]1c1ccccc1C1CC1 [Example 172, (2S,3R,4S,5S)-3-tert-butyl-4-[(5-tert-butyl-2-methoxyphenyl)methoxy]-5-(2-cyclopropylphenyl)-1-[(2S)-oxolane-2-carbonyl]pyrrolidine-2-carboxylic acid]
1 to 10 µM | 1 to 10 µM | +++ (≥350) | +++ (≥200) | COc1ncc(Br)cc1CO[C@H]1[C@H](C(C)(C)C)[C@@H](C(=O)O)N(C(=O)[C@@H]2CCCO2)[C@H]1c1ccccc1C1CC1 [Example 173, (2S,3R,4S,5S)-4-[(5-bromo-2-methoxypyridin-3-yl)methoxy]-3-tert-butyl-5-(2-cyclopropylphenyl)-1-[(2S)-oxolane-2-carbonyl]pyrrolidine-2-carboxylic acid]
< 1 µM | < 1 µM | +++ (≥350) | +++ (≥200) | COc1ccc(C(F)(F)F)cc1CO[C@H]1[C@H](C(C)(C)C)[C@@H](C(=O)O)N(C(=O)[C@@H]2CCCCO2)[C@H]1c1ccccc1C [Example 174, (2S,3R,4S,5S)-3-tert-butyl-4-{[2-methoxy-5-(trifluoromethyl)phenyl]methoxy}-5-(2-methylphenyl)-1-[(2S)-oxane-2-carbonyl]pyrrolidine-2-carboxylic acid]
1 to 10 µM | < 1 µM | +++ (≥350) | +++ (≥200) | COc1cc(C(F)(F)F)ccc1CO[C@H]1[C@H](C(C)(C)C)[C@@H](C(=O)O)N(C(=O)[C@@H]2CCCCO2)[C@H]1c1ccccc1C [Example 175, (2S,3R,4S,5S)-3-tert-butyl-4-{[2-methoxy-4-(trifluoromethyl)phenyl]methoxy}-5-(2-methylphenyl)-1-[(2S)-oxane-2-carbonyl]pyrrolidine-2-carboxylic acid]
1 to 10 µM | < 1 µM | +++ (≥350) | +++ (≥200) | COc1ncc(C2CCC2)cc1CO[C@H]1[C@H](C(C)(C)C)[C@@H](C(=O)O)N(C(=O)[C@@H]2CCCCO2)[C@H]1c1ccccc1C(C)C [Example 176, (2S,3R,4S,5S)-3-tert-butyl-4-[(5-cyclobutyl-2-methoxypyridin-3-yl)methoxy]-1-[(2S)-oxane-2-carbonyl]-5-[2-(propan-2-yl)phenyl]pyrrolidine-2-carboxylic acid]
1 to 10 µM | 1 to 10 µM | +++ (≥350) | ++ (≥100 and <200) | COc1ncc(C(F)(F)F)cc1CO[C@H]1[C@H](C(C)(C)C)[C@@H](C(=O)O)N(C(=O)[C@@H]2CCCCO2)[C@H]1c1ccccc1Br [Example 178, (2S,3R,4S,5S)-5-(2-bromophenyl)-3-tert-butyl-4-{[2-methoxy-5-(trifluoromethyl)pyridin-3-yl]methoxy}-1-[(2S)-oxane-2-carbonyl]pyrrolidine-2-carboxylic acid]
< 1 µM | < 1 µM | +++ (≥350) | +++ (≥200) | CCc1ccccc1[C@H]1[C@@H](OCc2cc(C(F)(F)F)cnc2OC)[C@H](C(C)(C)C)[C@@H](C(=O)O)N1C(=O)[C@@H]1CCCCO1 [Example 179, (2S,3R,4S,5S)-3-tert-butyl-5-(2-ethylphenyl)-4-{[2-methoxy-5-(trifluoromethyl)pyridin-3-yl]methoxy}-1-[(2S)-oxane-2-carbonyl]pyrrolidine-2-carboxylic acid]
